The record followed here is patent US10653691B2, “Method of promoting remyelination” (Case Western Reserve University, priority 2013, dated 2020).

Test [1] deals with mouse epiblast stem cell (EpiSC)-derived OPCs. Kind of test: Primary in vitro phenotypic screen of OPCs (MBP process length and intensity, high content imaging). It counts as cell-based. Conditions: 5 μM, 72 h, 727 drugs. The procedure: For the primary screen, OPCs were treated with vehicle alone (0.05% (v/v)DMSO) as a negative control, thyroid hormone (a known OPC differentiation inducer) as a positive control, or drug dissolved in DMSO at a concentration of 5 μM. After 72 h, cells were fixed and labeled with antibodies to myelin basic protein (MBP) and the length and intensity of MBP labeled oligodendrocyte processes measured (FIG. 1A). These features were reliable indicators of alteration in cellular phenotype, as indicated by consistency and high signal to background ratio of positive and vehicle controls across all screening plates (FIG. 5D-G). […] On the basis of this analysis, we identified the 22 drugs that enhanced oligodendrocyte formation greater than five standard deviations above DMSO treatment and outperformed thyroid hormone in the measured parameters (FIG. 1B).
EpiSC-derived OPCs were seeded onto poly-D-lysine 96-well Viewplate or CellCarrier plates (PerkinElmer) coated with laminin (Sigma, L2020; 10 μgml^−1) using electronic multichannel pipetors. […] All plates for the primary screen were processed and analyzed simultaneously to eliminate variability.
For the 5 μM in vitro screen, stained plates were imaged on the Opera confocal imaging system (PerkinElmer) and a set of 24×10 fields were collected from each well, resulting in an average of 10,000 cells being scored per well. […]

For another test, the system named is ERK1/2. As to the kind of experiment: Western blot of ERK1/2 phosphorylation in OPCs. It counts as cell-based, mouse. The conditions noted are these: for induction of ERK1/2 phosphorylation in OPCs: OPCs treated for 1 h. The procedure:
EpiSC-derived OPCs were seeded into poly-Lornithine/laminin coated six-well plates and allowed to attach for 2 h in DMEM/F12 without additional factors. Cells were treated with indicated inhibitors or DMSO for 1 h-SCH772984 (ChemieTek, […]), SB590885 (Tocris, 10 nM), LY294002 (Tocris, 10 μM), and PD0325901 (Stemgent, 1 μM). Cells were then stimulated with drug or FGF2 (R&DSystems; 20 ng ml^−1) for 1 h and then lysed in 200 μL RIPA buffer (0.15 M NaCl, 0.05M Tris, pH=8.0, 1 mM EDTA, 1% Triton X-100, 0.1% SDS, 10% glycerol, HALT protease and phosphatase inhibitor (Thermo Fisher) added just before use) and incubated on ice for 20 min. Lysates were centrifuged at 4° C. and supernatant collected. Protein concentrations were determined by Pierce BCA protein assay kit (Thermo Fisher). Equal amounts of protein were resolved in a reduced manner on NuPAGE 4-12% Bis-Tris gels (Life Technologies) and transferred onto PVDF membranes (Life Technologies). Blots were blocked in either 5% BSA (phosphoprotein) or 5% milk (non phosphoprotein). Primary antibodies were all from the same vendor (Cell Signaling) and included phospho-Erk1/2 (4370S, clone D13.14.4E; 1:2,000), ERK1/2 (9107S, clone 3A7; 1:2,000), phospho-glucocorticoid receptor (4161S; 1:1,000), and glucocorticoid receptor (12041, clone D6H2L; 1:1,000) followed by incubation with HRP-conjugated secondary antibodies and chemiluminescent enhancement by West Pico substrate (Thermo Fisher).

The subject of another test is mouse OPCs. As to the kind of experiment: OPC differentiation into MBP+ oligodendrocytes. It counts as cell-based. Conditions: 72 h, seven doses 0.01-6.7 μM.
The test system of a further test is MOG35-55 EAE mouse model. Kind of test: MOG35-55 chronic progressive EAE model. The procedure: Immunohistochemistry was performed as previously described. In short, tissue sections or whole slices were washed three times in PBS, blocked in PBS containing Triton X-100 (0.1%) and normal donkey serum (NDS, 2% for sections and 10% for cerebellar slices) and incubated with primary antibody overnight. For MBP immunohistochemistry, the primary antibody solution consisted of 2% NDS, 2% bovine serum albumin, and 0.1% saponin. For all other antibodies, the primary antibody solution consisted of 2% NDS and 0.1% Triton X-100. Primary antibodies used included rat anti-MBP (Abcam, ab7349; 1:100), mouse anti-APC CC1 clone (Millipore, MABC200; 1:500), and rabbit anti-IBA1 (Wako Chemicals, 019-19741; 1:1,000). The tissue was then washed in PBS and incubated in secondary antibodies for […]. Secondary detection was performed with Alexa Fluor-conjugated secondary antibodies (1:500) for 1 h. Luxol fast blue staining was performed as previously described.
Samples were processed as previously described. In short, samples were osmicated, stained en bloc with uranyl acetate, and embedded in EMbed 812, an Epon-812 substitute (EMS). Sections (1 μm) were cut and stained with toluidine blue and visualized on a light microscope (Leica DM5500B). Additional thin sections were cut, carbon coated and imaged either on a JEOL JEM-1200-EX electron microscope or a T12 electron microscope (FEI).
EAE was induced by immunizing 10-week-old C57BL/6 female mice with […] injection of […] complete Freund's adjuvant emulsion (Hooke Laboratories). One hour after immunization, mice were given 100 ng of pertussis toxin by 100 μl intraperitoneal injection. A second dose of pertussis toxin was administered the next day. EAE onset was monitored daily and scored using a clinical scale where 0 represented no abnormality; 1, limp tail; 2, limp tail and hind limb weakness; 3, hind limb paralysis; 4, hind limb paralysis and forelimb weakness; and 5, moribund. […] Once mice reached peak of disease ˜day 15; clinical score=3) they were randomized into treatment groups, and drug or vehicle (DMSO in saline) was administered intraperitoneally daily for 10 days (n=12-16 mice per group). […] Experimenters were blinded to the identity of the treatments and animals were scored daily. Cumulative disease scores for each animal were calculated during the treatment period, and a two-tailed t-test compared drug—with vehicle-treated groups. The extent of recovery for each animal was calculated as the difference between the peak disease score and the score at the end of each experiment, and a two-tailed t-test was used to compare each treatment with vehicle. External validation of MOG35-55 EAE experiments (n=12 mice per group) was performed at Hooke Laboratories with experimenters blinded to the identity of the substances.

Procedure for mouse OPCs: EpiSC-derived OPCs were seeded onto poly-D-lysine 96-well Viewplate or CellCarrier plates (PerkinElmer) coated with laminin (Sigma, L2020; 10 μgml^−1) using electronic multichannel pipetors. For the primary screen, 30,000 cells were seeded per well in screening medium (DMEM/F12 supplemented with N2 (R&D Systems), B-27 (Life Technologies), neurotrophin 3 (R&D Systems; 10 ng ml^−1), cAMP (Sigma; 50 μM), IGF-1 (R&D Systems; 100 ng ml^−1), noggin (R&D Systems; 100 ngml^−1)) and allowed to attach for 2 h before addition of drug. NIH Clinical Collection I and II drugs were added to assay plates with 0.1 ml pin replicators (Molecular Devices, Genetix; X5051), resulting in a final primary screening concentration of 5 μM. Thyroid-hormone-positive controls and DMSO vehicle controls were included in each assay plate. Cells were incubated under standard conditions (37° C., 5% CO2) for 3 days and fixed with 4% paraformaldehyde (PFA) in phosphate buffered saline (PBS). Fixed plates were permeabilized with 0.1% Triton X-100 and blocked with 10% donkey serum (v/v) in PBS for 2 h. Cells were labelled with MBP antibodies (Abcam, ab7349; 1:100) for 1 h at room temperature (˜22° C.) followed by detection with Alexa Fluorconjugated secondary antibodies (1:500) for 45 min. Nuclei were visualized by DAPI staining (Sigma; 1 μgml^−). All plates for the primary screen were processed and analyzed simultaneously to eliminate variability.
For the 5 μM in vitro screen, stained plates were imaged on the Opera confocal imaging system (PerkinElmer) and a set of 24×10 fields were collected from each well, resulting in an average of 10,000 cells being scored per well. For the dose-response (6.7 μM, 5 μM, 3.3 μM, 1.7 μM, 666 nM, 500 nM, and 333 nM) in vitro assays, plates were imaged on the Operetta High Content Imaging and Analysis system (PerkinElmer) and a set of 14×20 fields captured from each well resulting in an average of 3,300 cells being scored per well. […] Each traced nucleus region was then expanded by 50% and cross-referenced with the mature myelin protein (MBP or PLP1) stain to identify oligodendrocyte nuclei, and from this the percentage of oligodendrocytes was calculated. Processes emanating from oligodendrocyte nuclei were identified using the CSIRO2 analysis module within a custom Acapella script. Maximum mean process length (denoted ‘process length’) and mean process intensity (denoted ‘process intensity’) were generated on a per well basis. For the 5 μM in vitro screen, values were calculated and normalized to 100 for thyroid hormone (positive control)-treated wells and to 0 for DMSO(vehicle)-treated wells, on a per plate basis.

In the case of `COc1cc2c(cc1OC)C(=O)C(CC1CCN(Cc3ccccc3)CC1)C2` (centres unmarked) [Donepezil], the “hit status / activity in the primary screen (MBP process length and intensity)” value in test [1] is listed as “identified in the primary screen”.
As to `O=C(NOC[C@H](O)CO)c1ccc(F)c(F)c1Nc1ccc(I)cc1F` [PD0325901], in the test with ERK1/2 (OPCs, inhibitor 1 μM for 1 h, then miconazole), the “block of miconazole-induced ERK1/2 phosphorylation” value is recorded as “blocked the ability of miconazole to induce ERK1/2 phosphorylation”.
On to `C[C@@H](c1ncncc1F)[C@](O)(Cn1cncn1)c1ccc(F)cc1F` [voriconazole], for which the “induction of ERK1/2 phosphorylation in OPCs” value with ERK1/2 was “failed to induce changes in ERK1/2 phosphorylation”. In the test on mouse OPCs, the “differentiation of OPCs into oligodendrocytes” value is on record as “did not promote the differentiation of OPCs into oligodendrocytes”.
Regarding `CN1[C@@H]2CC[C@H]1C[C@@H](OC(c1ccccc1)c1ccccc1)C2` [benztropine], the “induction of ERK1/2 phosphorylation in OPCs” value with ERK1/2 is given as “did not induce ERK1/2 phosphorylation”. The “areas of myelin disruption in the white matter (luxol fast blue, MBP immunohistochemistry)” value in the test with MOG35-55 EAE mouse model (cervical spinal cords) is on record as “decrease in areas of myelin disruption in the white matter”. The “functional improvement (disease score)” value with MOG35-55 EAE mouse model (daily i.p. for 10 days from peak of disease, miconazole 10 mg/kg, clobetasol 2 mg/kg, benztropine 10 mg/kg) is “functional improvement, but to a lesser extent than miconazole and clobetasol”. For the same compound, the “hit status / activity in the primary screen (MBP process length and intensity)” value in test [1] was “one of the top 22 drugs”.
